What was measured:
tumor cells = test: Premature chromosome condensation (PCC) induction, cells not specified; format: cell-based; details: co-treatment with Lasonolide A
Description: (§1) Burkitt's Lymphoma CA46 cells (500,000) (FIG. 1B) or breast cancer MDA-MB-231 cells (500,000) (FIG. 1A) were treated by 100 nM Lasonolide A (stock solution 100 μM in DMSO) for 1 h. Lymphocytes were treated with 200 nM Lasonolide A for 1 h. Cells were harvested with centrifuging on 2,000 rpm for 5 min at 4° C. Pellets were washed once by PBS and re-suspended in 1 mL PBS. 200 μL cells mixture were added to the chamber for cytospining. Cells were cytospun on 800 rpm for 10 min; slides were fixed in fresh-made 4% paraformaldehyde fixation for 20 min at room temperature, then moved to 70% ethanol for 20 min. Slides were stained with Propidium Iodide (“PI”) (20 μg/mL) and RNase A (100 μg/mL) for 15 min. Slides were washed with PBS for three times and mounted with Vectashield anti-fade mounting media (Vector Laboratories, Inc., Burlingame, Calif.). Images were taken using a Nikon Eclipse TE-300 confocal microscope.

[1] = tested on: Burkitt's Lymphoma CA46 cells; test: PCC induction and PI staining; format: cell-based, human; details: 1 μM OA, 1 h
Description: as §1

human lymphocytes = test: PCC induction and PI staining; format: cell-based; details: 1 μM OA, without additional reagents

SMILES | effect of the added inhibitor on PCC induction by Lasonolide A (tumor cells) | cells with premature chromosome condensation (PCC) [1] [%] | lymphocytes going to PCC (human lymphocytes) [%]
CN1CC[C@H](c2c(O)cc(O)c3c(=O)cc(-c4ccccc4Cl)oc23)[C@H](O)C1 [Flavorpiridol] | could not influence the PCC induction |  | 
C[C@@H](CN1CC(=O)NC(=O)C1)N1CC(=O)NC(=O)C1 [ICRF187] | changed the pattern of PCC |  | 
C=C1[C@@H](O)[C@@H]2O[C@]3(CC[C@H](/C=C/[C@@H](C)[C@@H]4CC(C)=C[C@@]5(O[C@H](C[C@@](C)(O)C(=O)O)CC[C@H]5O)O4)O3)CC[C@H]2O[C@@H]1[C@@H](O)C[C@H](C)[C@H]1O[C@@]2(CCCCO2)CC[C@H]1C [OA, Okadaic Acid, reference compound] |  | 31 | 1.7
CC[C@H](CO)Nc1nc(NCc2ccccc2)c2ncn(C(C)C)c2n1 [Roscovitine] | could not influence the PCC induction |  | 
C[C@@]1(CO)[C@H](O)CC[C@@]2(C)[C@H]1CC[C@H]1C[C@@H]3C[C@@]12CC[C@]3(O)CO [aphidicolin] | had no effect on PCC induction |  | 

Source: patent US8278100B2, “Lasonolide compounds as reagents for inducing premature chromosome condensation and methods for treating disorders” (The United States of America, as Represented by the …, priority 2008, dated 2012)
